Test results taken from PubChem BioAssay AID1963976 (Molecular Pharmacology Branch, DTP, NCI, 2024).

Tested on: 435261-313-R-J1-PDC tumor spheroid viability
Assay: Anticancer human tumor 435261-313-R-J1-PDC patient-derived colon adenocarcinoma cell line growth inhibition [PI3K]
Conditions: spheroids with HUVEC and MSC; for IC50: curve of first compound; for viability, T/C: stronger effect = lower value; active means viability on the fitted dose curve at most 10% of control; inactive means the rest
How it was run: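 Spheroid viability read-out. Co-cultures contained the tumor line plus HUVEC and human MSCs. Each agent was paired with a PI3K inhibitor (inavolisib, alpelisib, duvelisib, copanlisib) across half-log dilutions starting at clinical Cmax, or at 10 microM when Cmax was unknown.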

[1] = second compound 0.0316 µM, first compound 0.0316 µM
[2] = second compound 0.0316 µM, first compound 0.1 µM
[3] = second compound 0.1 µM, first compound 0.0316 µM
[4] = second compound 0.1 µM, first compound 0.1 µM
[5] = second compound 0.316 µM, first compound 0.0316 µM
[6] = second compound 0.316 µM, first compound 0.1 µM
[7] = second compound 1 µM, first compound 0.0316 µM
[8] = second compound 1 µM, first compound 0.1 µM
[9] = second compound 3.16 µM, first compound 0.0316 µM
[10] = second compound 3.16 µM, first compound 0.1 µM
[11] = second compound 10 µM, first compound 0.0316 µM
[12] = second compound 10 µM, first compound 0.1 µM
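Further: spheroids exposed to compounds for 7 days.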

CC(C)NCC(C(=O)N1CCN(c2ncnc3c2C(C)CC3O)CC1)c1ccc(Cl)cc1 (centres undefined) + CC(Nc1ncnc2nc[nH]c12)c1cc2cccc(Cl)c2c(=O)n1-c1ccccc1
4820 nM: IC50 (second compound 1 µM)
775 nM: IC50 (second compound 10 µM)
4510 nM: IC50 (second compound 3.16 µM)
6390 nM: IC50 (second compound 0.1 µM)
4130 nM: IC50 (second compound 0.0316 µM)
3720 nM: IC50 (second compound 0.316 µM)
inactive: viability, T/C [1] 98.3% | viability, T/C [2] 102% | viability, T/C (second compound 0.0316 µM, first compound 0.316 µM) 101% | viability, T/C (second compound 0.0316 µM, first compound 1 µM) 76.7% | viability, T/C (second compound 0.0316 µM, first compound 3.16 µM) 60% | viability, T/C (second compound 0.0316 µM, first compound 10 µM) 24.4% | viability, T/C [3] 104% | viability, T/C [4] 88.9% | viability, T/C (second compound 0.1 µM, first compound 0.316 µM) 91.2% | viability, T/C (second compound 0.1 µM, first compound 1 µM) 102% | viability, T/C (second compound 0.1 µM, first compound 3.16 µM) 71.5% | viability, T/C (second compound 0.1 µM, first compound 10 µM) 36.3% | viability, T/C [5] 130% | viability, T/C [6] 88.7% | viability, T/C (second compound 0.316 µM, first compound 0.316 µM) 77.6% | viability, T/C (second compound 0.316 µM, first compound 1 µM) 67.7% | viability, T/C (second compound 0.316 µM, first compound 3.16 µM) 72.5% | viability, T/C (second compound 0.316 µM, first compound 10 µM) 26% | viability, T/C [7] 98.1% | viability, T/C [8] 93.9% | viability, T/C (second compound 1 µM, first compound 0.316 µM) 68.1% | viability, T/C (second compound 1 µM, first compound 1 µM) 80% | viability, T/C (second compound 1 µM, first compound 3.16 µM) 65.8% | viability, T/C (second compound 1 µM, first compound 10 µM) 30.6% | viability, T/C [9] 83.1% | viability, T/C [10] 84.8% | viability, T/C (second compound 3.16 µM, first compound 0.316 µM) 61.8% | viability, T/C (second compound 3.16 µM, first compound 1 µM) 74.2% | viability, T/C (second compound 3.16 µM, first compound 3.16 µM) 65.9% | viability, T/C (second compound 3.16 µM, first compound 10 µM) 18.4% | viability, T/C [11] 72.1% | viability, T/C [12] 69.6% | viability, T/C (second compound 10 µM, first compound 0.316 µM) 38.8% | viability, T/C (second compound 10 µM, first compound 1 µM) 59.3% | viability, T/C (second compound 10 µM, first compound 3.16 µM) 39.6% | viability, T/C (second compound 10 µM, first compound 10 µM) 14.9%

Cn1ncnc1[C@H]1c2n[nH]c(=O)c3cc(F)cc(c23)N[C@@H]1c1ccc(F)cc1 + CC(Nc1ncnc2nc[nH]c12)c1cc2cccc(Cl)c2c(=O)n1-c1ccccc1
> 100 nM: IC50 (second compound 0.0316 µM) | IC50 (second compound 0.1 µM) | IC50 (second compound 1 µM) | IC50 (second compound 3.16 µM)
inactive: viability, T/C (second compound 0.0316 µM, first compound 0.000316 µM) 116% | viability, T/C (second compound 0.0316 µM, first compound 0.001 µM) 80.9% | viability, T/C (second compound 0.0316 µM, first compound 0.00316 µM) 76.1% | viability, T/C (second compound 0.0316 µM, first compound 0.01 µM) 82.5% | viability, T/C [1] 59.2% | viability, T/C [2] 53.5% | viability, T/C (second compound 0.1 µM, first compound 0.000316 µM) 90.6% | viability, T/C (second compound 0.1 µM, first compound 0.001 µM) 124% | viability, T/C (second compound 0.1 µM, first compound 0.00316 µM) 104% | viability, T/C (second compound 0.1 µM, first compound 0.01 µM) 106% | viability, T/C [3] 85.2% | viability, T/C [4] 69.9% | viability, T/C (second compound 0.316 µM, first compound 0.000316 µM) 81% | viability, T/C (second compound 0.316 µM, first compound 0.001 µM) 54.3% | viability, T/C (second compound 0.316 µM, first compound 0.00316 µM) 71.4% | viability, T/C (second compound 0.316 µM, first compound 0.01 µM) 78.3% | viability, T/C [5] 62.1% | viability, T/C [6] 45.6% | viability, T/C (second compound 1 µM, first compound 0.000316 µM) 80.3% | viability, T/C (second compound 1 µM, first compound 0.001 µM) 59.1% | viability, T/C (second compound 1 µM, first compound 0.00316 µM) 80.9% | viability, T/C (second compound 1 µM, first compound 0.01 µM) 82.1% | viability, T/C [7] 56.6% | viability, T/C [8] 52.7% | viability, T/C (second compound 3.16 µM, first compound 0.000316 µM) 53.3% | viability, T/C (second compound 3.16 µM, first compound 0.001 µM) 57.3% | viability, T/C (second compound 3.16 µM, first compound 0.00316 µM) 75.8% | viability, T/C (second compound 3.16 µM, first compound 0.01 µM) 49.5% | viability, T/C [9] 71.1% | viability, T/C [10] 56.2% | viability, T/C (second compound 10 µM, first compound 0.000316 µM) 58% | viability, T/C (second compound 10 µM, first compound 0.001 µM) 50.8% | viability, T/C (second compound 10 µM, first compound 0.00316 µM) 34.9% | viability, T/C (second compound 10 µM, first compound 0.01 µM) 35.4% | viability, T/C [11] 39% | viability, T/C [12] 33.3%
76.3 nM: IC50 (second compound 0.316 µM)
0.725 nM: IC50 (second compound 10 µM)
